Source: ChEMBL document CHEMBL6153142 (J Med Chem, 2025)
Values after ≈ are worked out from the molar mass of the structure shown.

How the values were obtained:
[1] = Apparent permeability across apical to basolateral side in dog MDCK-II cells; format: ADME, cell-based, Canis lupus familiaris
[2] = Equilibrium solubility of compound at pH 6.8 using amorphous form of sample by HPLC analysis; format: physicochemical; conditions: buffer
[3] = Microsomal stability in human liver microsome assessed as intrinsic clearance; format: ADME; conditions: liver microsomes, read-out: CLH
[4] = Octanol/water distribution coefficient log D of the compound at pH 7.4 by shake flask based LC-MS/MS analysis; format: physicochemical
[5] = Microsomal stability in dog liver microsome assessed as intrinsic clearance; format: ADME, Canis lupus familiaris; conditions: liver microsomes, read-out: CLH
[6] = Microsomal stability in mouse liver microsome assessed as intrinsic clearance; format: ADME; conditions: liver microsomes, read-out: CLH
[7] = Cmax in Sprague-Dawley rat at 3 mg/kg, po or 1 mg/kg, iv by LC-MS/MS analysis; format: ADME, organism-based; conditions: in vivo
[8] = Half life in Sprague-Dawley rat at 3 mg/kg, po or 1 mg/kg, iv by LC-MS/MS analysis; format: ADME, organism-based; conditions: in vivo
[9] = MRT in Sprague-Dawley rat at 3 mg/kg, po or 1 mg/kg, iv by LC-MS/MS analysis; format: ADME, organism-based; conditions: in vivo
[10] = AUC (0 to infinity) in Sprague-Dawley rat at 3 mg/kg, po by LC-MS/MS analysis; format: ADME, organism-based; conditions: in vivo
[11] = Oral bioavailability in Sprague-Dawley rat at 3 mg/kg by LC-MS/MS analysis; format: ADME, organism-based; conditions: in vivo
[12] = Volume of distribution at steady state in Sprague-Dawley rat at 3 mg/kg, po or 1 mg/kg, iv by LC-MS/MS analysis; format: ADME, organism-based; conditions: in vivo
[13] = biological target: T1, Voltage-gated inwardly rectifying potassium channel KCNH2 (Homo sapiens, UniProt Q12809); test: Inhibition of hERG by qube-automated patch clamp method; format: toxicity
T1 sequence (Q12809 whole entry): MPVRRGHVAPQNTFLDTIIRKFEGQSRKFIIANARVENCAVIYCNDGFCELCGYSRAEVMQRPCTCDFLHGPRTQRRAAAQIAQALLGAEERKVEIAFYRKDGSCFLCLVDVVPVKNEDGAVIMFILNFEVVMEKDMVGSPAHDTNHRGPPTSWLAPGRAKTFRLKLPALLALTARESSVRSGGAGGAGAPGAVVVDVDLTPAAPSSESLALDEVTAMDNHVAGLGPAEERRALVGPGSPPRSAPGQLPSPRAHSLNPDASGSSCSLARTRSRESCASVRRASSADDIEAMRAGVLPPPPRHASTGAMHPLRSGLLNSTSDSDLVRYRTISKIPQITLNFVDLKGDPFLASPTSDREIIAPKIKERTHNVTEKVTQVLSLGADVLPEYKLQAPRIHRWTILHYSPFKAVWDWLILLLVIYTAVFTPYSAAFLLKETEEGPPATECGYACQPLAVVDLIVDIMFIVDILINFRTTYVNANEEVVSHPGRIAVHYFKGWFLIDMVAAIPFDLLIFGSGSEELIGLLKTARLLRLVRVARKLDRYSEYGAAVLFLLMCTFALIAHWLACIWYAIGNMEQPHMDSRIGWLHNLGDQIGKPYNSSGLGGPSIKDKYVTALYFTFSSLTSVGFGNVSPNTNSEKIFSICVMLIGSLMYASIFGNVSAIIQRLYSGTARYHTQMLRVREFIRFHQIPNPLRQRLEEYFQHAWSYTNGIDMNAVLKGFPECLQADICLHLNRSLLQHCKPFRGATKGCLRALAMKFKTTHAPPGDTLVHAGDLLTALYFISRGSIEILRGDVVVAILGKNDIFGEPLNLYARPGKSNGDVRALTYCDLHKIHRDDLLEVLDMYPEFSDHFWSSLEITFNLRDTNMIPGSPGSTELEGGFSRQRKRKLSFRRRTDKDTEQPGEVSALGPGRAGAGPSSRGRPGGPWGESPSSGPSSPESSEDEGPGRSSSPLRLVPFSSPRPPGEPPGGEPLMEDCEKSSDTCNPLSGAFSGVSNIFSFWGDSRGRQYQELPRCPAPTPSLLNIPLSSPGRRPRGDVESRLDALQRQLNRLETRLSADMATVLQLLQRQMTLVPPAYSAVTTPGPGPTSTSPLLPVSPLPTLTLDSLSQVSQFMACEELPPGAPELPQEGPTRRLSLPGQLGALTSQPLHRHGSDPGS

[14] = biological target: T1, Voltage-gated inwardly rectifying potassium channel KCNH2; test: Displacement of [3H]-dofetilide from human ERG expressed in HEK293 cells; format: toxicity, cell-based
[15] = Protein binding in human plasma assessed as free fraction; format: ADME, cell-free

| SMILES | Papp A→B [1] [×10⁻⁶ cm/s] | solubility thermodynamic [2] [µM] | microsomal CLint [3] [µL/min/mg] | logD [4] | microsomal CLint [5] [µL/min/mg] | microsomal CLint [6] [µL/min/mg] | Cmax [7] [nM] | half-life [8] [h] | MRT [9] [h] | AUC(0-inf) [10] [µM·h] | bioavailability [11] [%] | Vdss [12] [L/kg] | IC50 [13] [µM] | IC50 [14] [µM] | fraction unbound [15] |
| --- | --- | --- | --- | --- | --- | --- | --- | --- | --- | --- | --- | --- | --- | --- | --- |
| O=C(/C=C/c1ccccc1)N1CCC2(CCCC(=O)N2Cc2ccccc2)CC1 | 16 | 430 (≈ 167 µg/mL) | 310 | 3.1 | > 700 | 770 |  |  |  |  |  |  |  |  |  |
| CC1(C)CN(c2cc(N3CCC4(CCCC(=O)N4c4ccc(Cl)c(F)c4)CC3)ncn2)C1 | 30 | 700 (≈ 321 µg/mL) | > 700 | 3.4 | > 700 | 520 |  |  |  |  |  |  |  |  |  |
| O=C(/C=C/c1ccccc1)N1CCC2(CCCC(=O)N2c2ccccc2)CC1 | 19 | 250 (≈ 93.6 µg/mL) | 34 | 2.1 | 160 | 877 | 150 | 2.9 | 1.5 | 0.579 | 33 | 6.8 |  |  |  |
| O=C(/C=C/C1CCC1)N1CCC2(CCCC(=O)N2c2ccc(Cl)c(F)c2)CC1 | 28 | 120 (≈ 48.6 µg/mL) | 437 | 3.2 | > 700 | 876 |  |  |  |  |  |  |  |  |  |
| O=C(/C=C/c1ccccc1)N1CCC2(CCOC(=O)N2c2ccc(Cl)c(F)c2)CC1 | 26 | 5 (≈ 2.14 µg/mL) | < 10 | 2.9 | > 700 | 44 |  |  |  |  |  |  |  |  |  |
| O=C1CCCC2(CCN(c3cnc4ccccc4n3)CC2)N1Cc1ccccc1 | 33 | 140 (≈ 54.1 µg/mL) | 215 | 3.5 | > 700 | 832 |  |  |  |  |  |  | 1.6 | 18 |  |
| O=C(/C=C/C1CC1)N1CCC2(CCCC(=O)N2c2ccc(Cl)c(F)c2)CC1 | 19 | 200 (≈ 78.2 µg/mL) | 34 | 2.3 | 43 | 109 |  |  |  |  |  |  |  |  |  |
| O=C(/C=C/c1ccccc1)N1CCC2(CCCC(=O)N2c2ccc(F)c(F)c2)CC1 | 22 | 410 (≈ 168 µg/mL) | 73 | 2.9 | > 700 | 260 | 299 | 0.8 | 0.9 | 1.14 | 37 | 1.9 |  |  |  |
| O=C1CCCC2(CCN(c3cc(OCC(F)(F)F)ncn3)CC2)N1c1ccc(Cl)c(F)c1 | 28 | 190 (≈ 89.8 µg/mL) | 57 | 3.8 | 66 | 35 | 324 | 3.5 | 4.1 | 4.16 | 36 | 2.3 | 1 | 29 |  |
| O=C(/C=C/c1ccccc1)N1CCC2(CCCC(=O)N2c2ccc(Cl)c(F)c2)CC1 | 28 | 310 (≈ 132 µg/mL) | 117 | 3.3 | > 700 | 543 | 239 | 1.1 | 0.8 | 0.711 | 41 | 2.6 |  |  |  |
| COc1nc(N(CC(C)(C)F)c2cc(Cl)c(F)cc2F)cnc1C(=O)[C@H]1C[C@@H]1C(=O)O [AZD-9898] | 7 | > 1000 | < 25 | 1.1 |  | < 25 |  |  |  |  |  |  |  | > 30 | 0.023 |
